The values that follow come from patent US20100298377A1, “NOVEL SUBSTITUTED INDAZOLES, THE PREPARATION THEREOF AND USE OF SAME IN THERAPEUTICS” (SANOFI-AVENTIS, priority 2007, published 2010).

Read-outs that look alike come from different tables or passages of the source.

The subject of assay [1] is MIA PaCa-2 cells (human pancreatic carcinoma cells). In words: Proliferation of MIA PaCa-2 cells, intracellular ATP, CellTiter-Glo test. The note with it: 96 hours. Format: cell-based. From the text: (§1) b. Study of the Proliferation of Human Tumoral MIA PaCa-2, C-433, LnCaP and MCF7 Cells via Assay of the Intracellular ATP Using the Celltiter-Glo™ Test
(§2) The kit CellTiter-Glo™ for measuring cell viability via luminescence ([…]) is a homogeneous method for determining the number of viable cells in culture, based on quantification of the ATP present in the cells, and which indicates the presence of metabolically active cells.
(§3) The cell lines used in this test were the following: MIA PaCa-2 cells (human pancreatic carcinoma cells, ATCC, CRL-1420), C-433 cells (human Ewing sarcoma cells, DSMZ, ACC 268), LNCaP clone FGC cells (human prostate carcinoma cells, ATCC, CRL-1740), MCF7 cells (human breast carcinoma cells, ECACC, #86012803). The cells MIAPaCa-2 and LNCaP were cultured in D-MEM culture medium (Invitrogen Gibco, #419656-039) containing 10% foetal calf serum (FCS, Invitrogen Gibco, #10500-064) and 2 mM L-Glutamine (Invitrogen Gibco, #25030-024); the C-433 cells were cultured in MCCoy's 5A culture medium (Invitrogen Gibco, #26600-023)/RPMI 1640 (Invitrogen Gibco, #31870-025) (50/50) containing 10% FCS and 2 mM L-glutamine; the MCF7 cells were cultured in EMEM culture medium (EMEM, Biowhittaker, Lonza, #BE12-662F) containing 10% FCS and 2 mM L-Glutamine.
(§4) Evaluation of the Cell Viability via Luminescence Measurement: Celltiter-Glo™ Test
(§5) On day 1, the cells were inoculated at 1000 (C-433), 2500 (MCF7) and 10000 (LNCaP and MIA PaCa-2) cells per well in black-bottomed 96-well microplates (NUNC fluoronunc, Fisherbioblock 2311K) in 135 μl of whole culture medium and incubated at 37° C., 5% CO2, for 3 to 6 hours. The cells were then incubated with increasing concentrations of molecules diluted in dimethyl sulfoxide (DMSO, Sigma D2650). The molecules were added in a volume of 15 μl of a 10-fold concentrated solution in a final volume of 150 μl, the final percentage of DMSO being 0.1%. The cells were incubated at 37° C., 5% CO2, for 96 hours. After 4 days of treatment with the molecules, the CellTiter-Glo™ was performed by following the manufacturer's instructions (Kit Celltiter-Glo Luminescent, PROMEGA #G7571). Briefly, the cell plates were equilibrated for about 30 minutes at RT and 100 μl per well of Celltiter-Glo reagent were added. The cells were incubated for 1 hour at RT for lysis of the cells and stabilization of the signal. The intracellular ATP was quantified by measuring the luminescence in rlu units (relative luminescence units), 96 hours after initiation of the treatment, using a luminescence counter (Wallac). The tests were performed in six replicates.
(§6) i) the mean±s.e.m. of each series of well replicates was calculated;
(§7) ii) the maximum response is given by positive control wells containing untreated cells; this control was performed in 12 replicates;
(§8) iii) the minimum response is given by cell-free and untreated negative control wells; this control was performed in 6 replicates;
(§9) iv) using these maximum (100%) and minimum (0%) response values, respectively, the data were normalized to give a percentage relative to the maximum response;
(§10) The IC50 values were calculated by […] with the XLfit software (IDBS, UK) using formula 205.
For orientation: Cellular ATP, detected with luciferase, serves as a proxy for viable cell number.

A further assay concerns the target AKT1 (Homo sapiens, UniProt P31749, S473D). In words: Determination of the IC50 for AKT1 (HTRF). The format is biochemical. The note with it: AKT1 without PH domain, activated by PDK1. The method, then:
Determination of the IC50 for AKT1
The inhibitory potential of the compounds is evaluated by HTRF, a time-resolved fluorescence technique based on non-radiative energy transfer (FRET). […] This phosphorylation allows the kinase activity of AKT1 to be activated.
Starting with a 10 mM solution of inhibitors, 3 μl are taken and placed in a 96-well polypropylene plate containing 27 μl of 100% DMSO. The various test compounds are diluted in cascade by taking 15 μl of compound, to which are added 30 μl of 100% DMSO.
The various reaction components are added in the following manner:
Next, 10 μl of the inhibitor solution are added. Finally, the reaction is initiated by adding 10 μl of a solution containing both 100 μM of ATP and 10 μM of biotinylated peptide. The sequence of this peptide is as follows: biot-[…] (reference Neosystem SP000560). The plate is then covered with a plastic film, agitated and finally incubated at RT for 30 minutes. […] After incubation overnight at 4° C., the plate is read using an Ultra evolution spectrophotometer from Tecan. […] All the tests are performed in duplicate and the mean of the two tests is calculated.
For each point, a delta F is calculated in the following manner:
(§11) R(Ratio)=counts665 nm/counts620 nm
ΔF % is calculated by the Tecan Ultra Evolution machine.
(In general: TR-FRET usually uses a lanthanide donor and a delayed reading to cut background.)

Assay [2] addresses T1, Human S6K1 (24-421) T412E protein (Homo sapiens, UniProt P23443, T412E).
T1 construct: Human S6K1 (24-421) T412E protein; made in house; host or cells: Sf21 insect cells
In words: Determination of the IC50 for S6K1 (HTRF substrate phosphorylation test). Format: biochemical. The note with it: S6K1 activated by PDK1, ATP 30 μM. The method, then: Determination of the IC50 for S6K1
The inhibitory potential of the compounds for S6K1 is evaluated in an enzymatic test of phosphorylation of substrate in HTRF (Homogenous Time-Resolved Fluorescence) format. Human S6K1 (24-421) T412E protein is expressed in sf21 cells and purified by chromatography on a nickel chelate column. It is activated by PDK1.
The test comprises two steps, both performed at RT. The phosphorylation reaction takes place during the first step and the revelation step is performed during the second. […] The final concentrations of compounds thus obtained during the incubation period range from 10 μM to 0.17 nM and the concentration of enzyme is 2 nM. After incubation for 20 minutes, the reaction is stopped and the revelation initiated by addition of 30 μl of a mixture of streptavidin XL 665 Xlent, ref. 611SAXLB Cis bio international, and a europium cryptate-coupled anti-phospho-GSK3 antibody, ref. 64CUSKAZ Cis bio international, dissolved in the revelation buffer (HEPES/NaOH 166.7 mM, EDTA 221.7 mM, KF 667.7 mM, BSA 0.167%, pH 7.0). The reaction takes place in a black half-well plate ref. 3694 Costar.
A mixture of the reaction medium after each addition of reagent is obtained by agitation for a few minutes at 700-1000 rpm on a Heidolph Titramax 100 machine. The reading is taken on a TECAN Ultra Evolution machine after at least one night and up to 3 nights at 4° C. The reading settings are as follows: excitation wavelength 320 nm, emission wavelengths 620 and 665 nm, lag time 150 μs, integration time 500 μs.
For each point, the ΔF % is calculated as follows:
as §11
The IC50 values are calculated by means of the XLfit4 205 equation.

For assay [3], the system named is MEF-IGF1 murine fibroblast cells. In words: IGF1-dependent proliferation of MEF-IGF1 cells via incorporation of [14C]-thymidine. To be noted: [14C]-thymidine incorporation, IGF1 stimulated, 72 hours, read-out: IC50 MEF-IGF. Format: cell-based.
Description: a. Study of the IGF1-Dependent Proliferation of MEF-IGF1 Murine Fibroblast Cells Measured via Incorporation of [14C]-Thymidine
This test is based on the incorporation of [^14C]-thymidine into the DNA of the cells for the S phase of the cell cycle during cell division. The cell line used in this test is the MEF/3T3 Tet-Off Clone 18 line obtained by stable transfection of the human receptor IGF1R in murine MEF/3T3 Tet-Off fibroblasts. To measure the IGF1-dependent cell proliferation, the cells were deprived of serum and cultured for 3 days in the serum-free culture medium in the presence of the growth factor IGF1 which stimulates the proliferation of MEF-IGF1 cells.
Test of Incorporation of [^14C]-Thymidine into MEF-IGF1 Cells
On day 1, the cells were inoculated with 7500 cells per well in Cytostar 96-well microplates (Amersham (GE) RPNQ0162) in 200 μl of EMEM medium (EMEM, Biowhittaker, #BE12-662F) containing 10% foetal calf serum (FCS, TET-BD Biosciences Tet System Approved FBS US-Sourced, #8630-1) and 1% PSG (Penicillin-Streptomycin-Glutamine (PSG), Gibco #10378-016), and incubated at 37° C., 5% CO2, for 24 hours. On day 2, the cells were washed in the FCS-free EMEM culture medium containing 1% PSG, and incubated in 170 μl of this serum-free culture medium at 37° C., 5% CO2, for 24 hours. On day 3, the cells were incubated with 10 μl of IGF1 (2 μg/ml of final concentration; recombinant human IGF-1, R & D Systems, #291-G1), 10 μl (0.1 μCi) of [^14C]-Thymidine (NEN NEC-568) plus 10 μl of increasing concentrations of the test molecules, diluted in dimethyl sulfoxide (DMSO, Sigma D2650). The molecules were added in a volume of 10 μl of a 20-fold concentrated solution in a final volume of 200 μl, the final percentage of DMSO being 0.1%. The treated cells were incubated at 37° C., 5% CO2, for 72 hours. The incorporation of [^14C]-Thymidine was quantified in cpm units (counts per minute) by counting the radioactivity 72 hours after the start of the treatment, using a Micro-Beta radioactivity counter (Perkin-Elmer). The tests were performed in duplicate.
as §6
ii) the background noise is calculated by preparing cell-free, IGF1-free and untreated control wells; this control was performed in 4 replicates. The background noise was removed at each measurement;
iii) the maximum response is given by positive control wells containing cells in the presence of IGF1 but untreated; this control was performed in 4 replicates;
iv) the minimum response is given by negative control wells containing IGF1-free and untreated cells; this control was performed in 4 replicates;
as §10
For orientation: Incorporation of labelled thymidine or its analogues reports DNA synthesis.

Assay [4] concerns LNCaP clone FGC cells (human prostate carcinoma cells). In words: Proliferation of LNCaP cells, intracellular ATP, CellTiter-Glo test. The format is cell-based. The note with it: Homo sapiens, LNCaP-Clone-FGC, 96 hours.
Description: as §1, §2, §3, §4, §5, §6, §7, §8, §9, §10

Sequence of AKT1 (P31749 118-480 S473D limits assumed): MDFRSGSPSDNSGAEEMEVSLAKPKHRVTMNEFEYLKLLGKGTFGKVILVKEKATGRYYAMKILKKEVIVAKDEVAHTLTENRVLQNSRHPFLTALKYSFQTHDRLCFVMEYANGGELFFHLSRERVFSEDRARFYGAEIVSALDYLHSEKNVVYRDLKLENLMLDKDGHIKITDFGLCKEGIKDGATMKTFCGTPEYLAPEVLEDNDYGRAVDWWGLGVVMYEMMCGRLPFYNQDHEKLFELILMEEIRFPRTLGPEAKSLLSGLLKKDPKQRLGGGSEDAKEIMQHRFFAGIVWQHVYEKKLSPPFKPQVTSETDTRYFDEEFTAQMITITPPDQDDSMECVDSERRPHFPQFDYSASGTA
T1 sequence (P23443 24-421 T412E): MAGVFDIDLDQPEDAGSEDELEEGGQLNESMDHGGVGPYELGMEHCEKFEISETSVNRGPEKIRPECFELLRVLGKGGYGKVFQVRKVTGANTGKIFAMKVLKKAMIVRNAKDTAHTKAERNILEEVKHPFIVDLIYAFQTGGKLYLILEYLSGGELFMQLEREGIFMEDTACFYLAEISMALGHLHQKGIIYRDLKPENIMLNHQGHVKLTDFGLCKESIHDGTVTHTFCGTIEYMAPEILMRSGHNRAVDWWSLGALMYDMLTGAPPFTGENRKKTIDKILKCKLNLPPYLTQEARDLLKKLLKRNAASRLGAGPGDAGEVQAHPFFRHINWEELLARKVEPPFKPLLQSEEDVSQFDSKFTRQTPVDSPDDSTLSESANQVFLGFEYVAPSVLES

For `O=C(Nc1ccc2[nH]ncc2c1)N[C@H](c1ccc(Cl)c(Cl)c1)[C@H]1CCCCN1` [Ex 6, 1-{(R)-(3,4-Dichlorophenyl)[(2R)-piperid-2-yl]methyl}-3-(1H-indazol-5-yl)urea], the IC50 – broadly, the concentration that gives 50% inhibition – in assay [1] is 2900 nM; against AKT1, less than 100 nM; in assay [2], 100 to 500 nM.
For `O=C(Nc1ccc2[nH]ncc2c1)N[C@@H](c1cc(Cl)cc(Cl)c1)[C@@H]1CCCCN1` [Ex 7, 1-{(S)-(3,5-Dichlorophenyl)[(2S)-piperid-2-yl]methyl}-3-(1H-indazol-5-yl)urea], the IC50 in assay [1] was 9320 nM; against AKT1, less than 100 nM; in assay [3] (Mus musculus, Fibroblast) it was 280 nM; in assay [4], 5000 nM.
For `CN1CCCCC1C(NC(=O)Nc1ccc2[nH]nc(-c3ccccn3)c2c1)c1ccccc1` [Ex 15, 1-[(1-Methylpiperid-2-yl)(phenyl)methyl]-3-(3-pyrid-2-yl-1H-indazol-5-yl)urea((S,2S),(R,2R))], the IC50 in assay [1] was 2800 nM; at AKT1, 100 to 500 nM.
Regarding `O=C(Nc1ccc2[nH]nc(-c3ccncc3)c2c1)N[C@@H](c1ccc(Cl)c(Cl)c1)[C@@H]1CCCCN1` [Ex 16, 1-{(S)-(3,4-Dichlorophenyl)[(2S)-piperid-2-yl]methyl}-3-(3-pyrid-4-yl-1H-indazol-5-yl)urea], the IC50 in assay [1] was 7790 nM; against AKT1, 100 to 500 nM.
Take `CN1CCCCC1C(NC(=O)Nc1ccc2[nH]nc(-c3nc4ccccc4[nH]3)c2c1)c1ccccc1` [Ex 17, 1-[3-(1H-Benzimidazol-2-yl)-1H-indazol-5-yl]-3-[(1-methylpiperid-2-yl)(phenyl)methyl]urea((S,2S),(R,2R))]: the IC50 on AKT1 is less than 100 nM; in assay [3] (Mus musculus, Fibroblast), 2230 nM; in assay [4] it was 670 nM.
In the case of `CN1CCCCC1C(NC(=O)Nc1cc(F)c2[nH]nc(N)c2c1)c1ccccc1` [Ex 20, 1-(3-Amino-7-fluoro-1H-indazol-5-yl)-3-[(1-methylpiperid-2-yl)(phenyl)methyl]urea((S,2S),(R,2R))], the IC50 in assay [1] was 10000 nM; against AKT1 it was 100 to 500 nM.
As to `CN1CCCCC1C(NC(=O)Nc1ccc2[nH]nc(C#Cc3ccccc3)c2c1)c1ccccc1` [Ex 23, 1-[(1-Methylpiperid-2-yl)(phenyl)methyl]-3-[3-(phenylethynyl)-1H-indazol-5-yl]urea((S,2S),(R,2R))], the IC50 in assay [1] is 930 nM; against AKT1, less than 100 nM; in assay [2] it was 500 to 2000 nM.
As to `CN1CCCCC1C(NC(=O)Nc1ccc2[nH]nc(CCc3ccccc3)c2c1)c1ccccc1` [Ex 27, 1-[(1-Methylpiperid-2-yl)(phenyl)methyl]-3-[3-(2-phenylethyl)-1H-indazol-5-yl]urea((S,2S),(R,2R))], the IC50 was in the range of 1500 to 7000 nM in assay [1] and 100 to 500 nM against AKT1.
As to “(6-Fluoro-1H-indazol-5-yl)-(S)-(3-chloro-5-fluorophenyl)-(S)-piperid-2-ylmethyl carbamate [Ex 50]”, the IC50 is less than 100 nM against AKT1 and 3160 nM in assay [3].
